Entries after “also recorded” stand apart in the source; their conditions may differ.
Legend:
[1] = molecular target: Keap1-Nrf2 PPI (Keap1 Kelch domain / FITC-9mer Nrf2 peptide amide) (Homo sapiens, UniProt Q14145); test: Fluorescence polarization; conditions: FP assay, triplicates
[2] = test system: Nrf2 target genes GSTM3, HMOX1, NQO1 in NCM460D cells; test: Expression of Nrf2-ARE regulated genes by RT-qPCR in NCM460D cells; assay type: cell-based; conditions: NCM460D cells, 100, 10 and 1 μM, 24 h, RT-PCR

Sequence of Keap1-Nrf2 PPI (Keap1 Kelch domain / FITC-9mer Nrf2 peptide amide) (Q14145 321-609 limits assumed): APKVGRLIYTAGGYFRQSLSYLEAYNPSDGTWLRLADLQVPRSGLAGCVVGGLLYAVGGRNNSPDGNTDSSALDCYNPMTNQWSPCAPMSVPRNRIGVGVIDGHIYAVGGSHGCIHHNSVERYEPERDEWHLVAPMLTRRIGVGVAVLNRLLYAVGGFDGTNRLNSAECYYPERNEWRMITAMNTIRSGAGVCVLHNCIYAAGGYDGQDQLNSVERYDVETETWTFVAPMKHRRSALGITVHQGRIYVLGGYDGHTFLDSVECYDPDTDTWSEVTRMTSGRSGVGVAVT

Row | SMILES | inhibition at 5 µM [1] [%] | transcription (mRNA levels) of Nrf2 target genes GSTM3, HMOX1 and NQO1 [2]
1 | COc1ccc(S(=O)(=O)N(CC(=O)O)c2ccc(N(CC(=O)O)S(=O)(=O)c3ccc(OC)cc3)c(N3CCCCC3)c2)cc1 [7b, 2-(Piperidin-1-yl)-1,4-bis(4-methoxyphenylsulfonamido)benzene-N,N'-diacetic acid] | ~50 | –
2 | Cc1ccc(S(=O)(=O)N(CC(=O)O)c2ccc(N(CC(=O)O)S(=O)(=O)c3ccc(C)cc3)c(OCc3ccc(F)cc3)c2)cc1 [7v, 2-(4-Fluorobenzyloxy)-1,4-bis(4-methylphenylsulfonamido)benzene-N,N'-diacetic acid] | – | no effects
3 | Cc1ccc(S(=O)(=O)N(CC(=O)O)c2cc(OCc3ccc(F)cc3)c(N(CC(=O)O)S(=O)(=O)c3ccc(C)cc3)c3ccccc23)cc1 [12d, 2-(4-Fluorobenzyloxy)-1,4-bis(4-methylphenylsulfonamido)naphthalene-N,N'-diacetic acid] | – | significantly increased; also recorded: effectively stimulate transcription
